Reference: patent US11718618B2, “Substituted pyrido[2,1-a]isoquinolines as VMAT2 inhibitors” (priority 2021, dated 2023)

Legend:
human VMAT2 = human VMAT2 (Homo sapiens (Human), UniProt Q05940); experiment: VMAT2 radioligand binding, 3H-dihydrotetrabenazine competition on human platelet homogenate; conditions: 10 nM 3H-dihydrotetrabenazine, human platelet homogenate, 25° C., 90 minutes; read-out: VMAT2 Ki
Description: Examples of techniques for determining the capability of a compound to inhibit VMAT2 are provided below. The procedure was adapted from that described previously (see, e.g., Near, (1986), Mol. Pharmacol. 30: 252-57; Teng, et al., J. Neurochem. 71, 258-65, 1998). Homogenates from human platelets were prepared by homogenization and then washed by centrifugation as described previously (see, e.g., Hoare et al., (2003) Peptides 24:1881-97).
The human VMAT2 Ki values for the compounds listed in Table 15A and Table 15B were determined using the following procedures. Compound dilution series in DMSO were generated from either powder stocks by hand, or from DMSO stocks using serial dilution on a Vantage (Hamilton), or direct dilution using an Echo 655 (Beckman). In a total volume of 0.145 to 0.150 mL in low-binding 96-well plates (Corning #3605), twelve concentrations of test compound were competed against 10 nM ^3H-dihydrotetrabenezine (American Radiolabeled Chemicals) on human platelet homogenate (30 μg membrane protein per well) in VMAT2 binding buffer (Dulbecco's phosphate buffered saline, 1 mM EDTA, pH 7.4). Following incubation at 25° C. for 90 minutes, bound radioligand was collected by rapid filtration onto either GF/B or GF/C glass fiber filters, pretreated with 0.100 polyethylenimine, using either a Unifilter-96 Harvester (PerkinElmer) or Microlab Star (Hamilton). Following harvesting the filter plates were washed with 0.8 mL VMAT2 binding buffer, and bound radioligand was quantified by scintillation counting using a Topcount NXT or Microplate Counter Microbeta (PerkinElmer).

[1] = Stability of compounds in human liver microsomes; assay type: in vitro ADME; conditions: for CLint scaled at 0.5 μM / half-life at 0.5 μM: both sexes, pH 7.4; for CLint scaled at 0.5 μM: liver microsomes, calculated from HLM half-life, read-out: HLM Scaled Intrinsic Clearance; for CLint scaled at 0.5 μM / Predicted Max. Bioavailability (% F) / HLM Predicted Systemic Clearance: human; for half-life at 0.5 μM: 0.5 μM compound, 0.5 mg/mL human liver microsomes, 37° C., maxed at 420 minutes, read-out: HLM Elimination half-life (t1/2, min); for Predicted Max. Bioavailability (% F): predicted from HLM data; for HLM Predicted Systemic Clearance: scaled from HLM half-life (Obach method)
Description: A test compound (0.5 μM) was incubated with pooled mixed gender liver microsomes from humans (0.5 mg/mL total protein) at 37° C. in the presence of an NADPH-generating system containing 50 mM, pH 7.4 potassium phosphate buffer, 3 mM magnesium chloride, 1 mM EDTA, 1 mM NADP, 5 mM glusose-6-phosphate, and 1 Unit/mL glucose-6-phosphate dehydrogenase. All concentrations were relative to the final incubation volume of 125 μL. Incubations were conducted at 37° C. for 0, 5, 10, 20, 40, and 60 minutes in a water bath and terminated by rapid mixing with 150 μL of ice-cold acetonitrile containing internal standard. Precipitated proteins were removed by centrifugation prior to LC-MS/MS analysis. Aliquots of the resulting supernatant fractions were analyzed by LC-MS/MS monitoring for depletion of parent compound. The resultant peak area ratio versus time data was fitted to a non-linear regression using XLfit Scientific Curve Fitting Software (IDBS Ltd., Surrey, UK) and the elimination half-life (t1/2, min) was calculated from the slope. […] Additional values calculated included predicted extraction ratio and predicted maximum bioavailability.

human VMAT2, sequence (Q05940 whole entry): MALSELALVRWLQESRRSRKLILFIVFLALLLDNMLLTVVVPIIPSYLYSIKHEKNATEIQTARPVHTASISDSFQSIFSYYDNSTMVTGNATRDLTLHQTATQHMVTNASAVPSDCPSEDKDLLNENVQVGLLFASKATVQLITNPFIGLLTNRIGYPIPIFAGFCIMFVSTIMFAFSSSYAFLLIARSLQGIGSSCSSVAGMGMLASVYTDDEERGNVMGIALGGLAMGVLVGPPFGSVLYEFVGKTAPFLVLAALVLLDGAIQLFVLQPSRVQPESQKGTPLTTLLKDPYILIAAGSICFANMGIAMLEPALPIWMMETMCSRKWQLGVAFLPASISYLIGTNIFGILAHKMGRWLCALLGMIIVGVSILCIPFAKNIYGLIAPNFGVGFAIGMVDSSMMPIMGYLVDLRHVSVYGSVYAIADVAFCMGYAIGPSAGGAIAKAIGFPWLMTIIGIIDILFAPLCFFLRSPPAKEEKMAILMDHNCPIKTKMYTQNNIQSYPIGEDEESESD

Structure (SMILES)	Ki (human VMAT2) [nM]	CLint scaled at 0.5 μM [1] [mL/min/kg]	half-life at 0.5 μM [1] [min]	Predicted Max. Bioavailability (% F) [1] [% F]	HLM Predicted Systemic Clearance [1] [mL/min/kg]
COc1cc2c(cc1OCCC(F)(F)F)CCN1C[C@H](CC(C)(C)C)[C@@H](O)C[C@@H]21 [Compound 4-9, (2S,3S,11bS)-3-(2,2-dimethylpropyl)-10-methoxy-9-(3,3,3-trifluoropropoxy)-1H,2H,3H,4H,6H,7H,11bH-pyrido[2,1-a]isoquinolin-2-ol]	277	≤ 2.97	≥ 420	≥87	≤2.59
COc1cc2c(cc1OCC(F)F)CCN1C[C@@H](CC(C)(C)C)[C@@H](O)C[C@H]21 [Compound 4-10, (2S,3R,11bR)-9-(2,2-difluoroethoxy)-3-(2,2-dimethylpropyl)-10-methoxy-1H,2H,3H,4H,6H,7H,11bH-pyrido[2,1-a]isoquinolin-2-ol]	15	3.65	342	85	3.09
COc1cc2c(cc1OCC(C)(F)F)CCN1C[C@@H](CC(C)(C)C)[C@@H](O)C[C@H]21 [Compound 4-11, (2S,3R,11bR)-9-(2,2-difluoropropoxy)-3-(2,2-dimethylpropyl)-10-methoxy-1H,2H,3H,4H,6H,7H,11bH-pyrido[2,1-a]isoquinolin-2-ol]	14	≤ 2.97	≥ 420	≥87	≤2.59
COc1cc2c(cc1OCCC(F)(F)F)CCN1C[C@@H](CC(C)(C)C)[C@@H](O)C[C@H]21 [Compound 4-12, (2S,3R,11bR)-3-(2,2-dimethylpropyl)-10-methoxy-9-(3,3,3-trifluoropropoxy)-1H,2H,3H,4H,6H,7H,11bH-pyrido[2,1-a]isoquinolin-2-ol]	3.4	≤ 2.97	≥ 420	≥87	≤2.59
COc1cc2c(cc1OCC(F)F)CCN1C[C@@H](CC(C)(C)C)[C@H](O)C[C@H]21 [Compound 4-13, (2R,3R,11bR)-9-(2,2-difluoroethoxy)-3-(2,2-dimethylpropyl)-10-methoxy-1H,2H,3H,4H,6H,7H,11bH-pyrido[2,1-a]isoquinolin-2-ol]	2.2	≤ 2.97	≥ 420	≥87	≤2.59
COc1cc2c(cc1OCC(C)(F)F)CCN1C[C@@H](CC(C)(C)C)[C@H](O)C[C@H]21 [Compound 4-14, (2R,3R,11bR)-9-(2,2-difluoropropoxy)-3-(2,2-dimethylpropyl)-10-methoxy-1H,2H,3H,4H,6H,7H,11bH-pyrido[2,1-a]isoquinolin-2-ol]	2.6	≤ 2.97	≥ 420	≥87	≤2.59
COc1cc2c(cc1OCC(F)(F)F)CCN1C[C@@H](CC(C)(C)C)[C@@H](O)C[C@H]21 [Compound 4-16, (2S,3R,11bR)-3-(2,2-dimethylpropyl)-10-methoxy-9-(2,2,2-trifluoroethoxy)-1H,2H,3H,4H,6H,7H,11bH-pyrido[2,1-a]isoquinolin-2-ol]	22	≤ 2.97	≥ 420	≥87	≤2.59
CCOc1cc2c(cc1OC)[C@H]1C[C@@H](O)[C@H](CC(C)(C)C)CN1CC2 [Compound 4-17, (2R,3R,11bR)-3-(2,2-dimethylpropyl)-9-ethoxy-10-methoxy-1H,2H,3H,4H,6H,7H,11bH-pyrido[2,1-a]isoquinolin-2-ol]	1.1	32.9	38	38	12.44
COc1cc2c(cc1OCCF)CCN1C[C@@H](CC(C)(C)C)[C@H](O)C[C@H]21 [Compound 4-18, (2R,3R,11bR)-3-(2,2-dimethylpropyl)-9-(2-fluoroethoxy)-10-methoxy-1H,2H,3H,4H,6H,7H,11bH-pyrido[2,1-a]isoquinolin-2-ol]	5.5	8.05	155	71	5.74
COc1cc2c(cc1OCC1(F)COC1)CCN1C[C@@H](CC(C)(C)C)[C@H](O)C[C@H]21 [Compound 4-19, (2R,3R,11bR)-3-(2,2-dimethylpropyl)-9-[(3-fluorooxetan-3-yl)methoxy]-10-methoxy-1H,2H,3H,4H,6H,7H,11bH-pyrido[2,1-a]isoquinolin-2-ol]	8.1	14.2	88	59	8.3
COc1cc2c(cc1OCC1COC1)CCN1C[C@@H](CC(C)(C)C)[C@H](O)C[C@H]21 [Compound 4-22, (2R,3R,11bR)-3-(2,2-dimethylpropyl)-10-methoxy-9-(oxetan-3-ylmethoxy)-1H,2H,3H,4H,6H,7H,11bH-pyrido[2,1-a]isoquinolin-2-ol]	14	9.6	130	68	6.49
COc1cc2c(cc1OCCOC1(C#N)CCC1)CCN1C[C@@H](CC(C)(C)C)[C@H](O)C[C@H]21 [Compound 4-23, 1-(2-{[(2R,3R,11bR)-3-(2,2-dimethylpropyl)-2-hydroxy-10-methoxy-1H,2H,3H,4H,6H,7H,11bH-pyrido[2,1-a]isoquinolin-9-yl]oxy}ethoxy)cyclobutane-1-carbonitrile]	0.41	58.5	21	25	14.9
COc1cc2c(cc1OCC1(OS(C)(=O)=O)CC1)CCN1C[C@@H](CC(C)(C)C)[C@H](O)C[C@H]21 [Compound 4-94, 1-({[(2R,3R,11bR)-3-(2,2-dimethylpropyl)-2-hydroxy-10-methoxy-1H,2H,3H,4H,6H,7H,11bH-pyrido[2,1-a]isoquinolin-9-yl]oxy}methyl)cyclopropyl methanesulfonate]	387				
COc1cc2c(cc1OCc1ncno1)CCN1C[C@@H](CC(C)(C)C)[C@H](O)C[C@H]21 [Compound 4-95, (2R,3R,11bR)-3-(2,2-dimethylpropyl)-10-methoxy-9-(1,2,4-oxadiazol-5-ylmethoxy)-1H,2H,3H,4H,6H,7H,11bH-pyrido[2,1-a]isoquinolin-2-ol]	> 10000				
COc1cc2c(cc1OCC1(S(C)(=O)=O)CC1)CCN1C[C@@H](CC(C)(C)C)[C@H](O)C[C@H]21 [Compound 4-96, (2R,3R,11bR)-3-(2,2-dimethylpropyl)-9-[(1-methanesulfonylcyclo-propyl)methoxy]-10-methoxy-1H,2H,3H,4H,6H,7H,11bH-pyrido[2,1-a]isoquinolin-2-ol]	> 10000				
COc1cc2c(cc1OCC1CCS(=O)(=O)CC1)CCN1C[C@@H](CC(C)(C)C)[C@H](O)C[C@H]21 [Compound 4-97, 4-({[(2R,3R,11bR)-3-(2,2-dimethylpropyl)-2-hydroxy-10-methoxy-1H,2H,3H,4H,6H,7H,11bH-pyrido[2,1-a]isoquinolin-9-yl]oxy}methyl)-1λ^6-thiane-1,1-dione]	> 10000				
COc1cc2c(cc1OC)[C@@H]1C[C@H](O)[C@@H](CC(C)(C)C)CN1CC2 [Compound 5-3, (2S,3S,11bS)-3-(2,2-dimethylpropyl)-9,10-dimethoxy-1H,2H,3H,4H,6H,7H,11bH-pyrido[2,1-a]isoquinolin-2-ol]	700				
COc1cc2c(cc1OC)[C@@H]1C[C@@H](O)[C@@H](CC(C)(C)C)CN1CC2 [Compound 5-4, (2R,3S,11bS)-3-(2,2-dimethylpropyl)-9,10-dimethoxy-1H,2H,3H,4H,6H,7H,11bH-pyrido[2,1-a]isoquinolin-2-ol]	> 10000				
